Here are results for eight compounds from patent US20130005783A1, “Prevention And Treatment Of Diseases Caused By Elevated Levels Of Deoxy-Sphingolipids” (priority 2010, published 2013).

Test [1] deals with mutated form of SPT (C133W). The test is classed as cell-based. The conditions noted are these: HEK293 C133W; for SPT activity: fumonisin B1 24 h, 1 mM L-cycloserine, 10 mM D-serine. As to the method: Cells were cultivated in normal media without any supplementation (A) or in the presence of 10 mM L-alanine (B), 10 mM glycine (C); 1 mM L-cycloserine (D); 10 mM D-alanine (E), 10 mM D-serine (F) or 10 mM L-serine (G).
HEK293 cells expressing a mutated form of SPT (C133W) were cultured in the presence of various amino acids and structurally related compounds. The cells were additionally treated with fumonisin B1 (see Example 1).
(§1) A further suitable method to screen for putative suppressors of deoxy-sphingolipid synthesis is as follows: a suitable cell line (e.g. HEK293) is cultured to approximately 60% confluency. The compound of interest is added to the culture medium in the appropriate concentration. Additionally, fumonisin B1 (FB1) is added to a final concentration of 10 μg/ml. After 24 h of incubation, cells are washed with PBS and harvested and an aliquot separated for cell counting. The remaining cells are pelleted and extracted in 500 μl extraction buffer (4 volumes MeOH/KOH+1 volume CHCl3), including an internal reference standard (e.g. deuteriated (d7)-sphinganine, (d7)-sphingosine or synthetic C17-sphingosine). Subsequently, 500 μl chloroform, 500 μl alkaline water and 100 μl 2N ammonia are added, followed by centrifugation (120000×g, 5 min). The upper phase is discarded and the organic phase washed twice with alkaline water. Lipids are dried under a stream of N2 and resolubilized in 50 μl ethanol (95%) and 100 μl methanol:H2O (85:15). The lipids are finally derivatized with o-phthaldialdehyde (OPA) and analysed by LC-MS. OPA derivates are separated on a C18 column. Mobile phase is ammonium acetate (5 mM):methanol=17:83 (25 min, isocratic), followed by a wash with 100% methanol (5 min) at a flow rate of 300 μl/min. Deoxysphingoid bases are ionised by APCI (atmospheric pressure chemical ionisation) and analysed in positive ion mode.

The next test has as its system cellular SPT activity. The test can be described thus: Accumulation of sphingoid bases in HEK 293 wt cells treated with fumonisin B1 and cytostatics. The format is cell-based. The conditions noted are these: for DoxSA generation / SA (sphinganine) generation / accumulation: fumonisin B1, increasing concentrations of drug. Here is the method: HEK 293 wt cells were cultured in the presence of increasing concentrations of paclitaxel (FIG. 6-I), etoposide (FIG. 6-II) and thalidomide (FIG. 6-III). The cells were additionally treated with fumonisin B1 (FB1), an inhibitor of ceramide synthase (CerS). The inhibition of CerS leads to an intracellular accumulation of the SPT products, namely sphinganine, deoxy-sphinganine. Since the SPT reaction is the rate limiting step in the de novo synthesis pathway, the amount of accumulated sphingoid bases is a measure of the cellular SPT activity. […] Etoposide increased sphinganine and DoxSA production. […] In contrast to paclitaxel and etiposide, the non-cytostatic thalidomide (FIG. 6-III) had no effect.
as §1

Another test has as its system HSAN1 mice. The test can be described thus: L-serine or L-alanine enriched diet in transgenic HSAN1 mice (C133W SPTLC1). The test is classed as in vivo. An excerpt: Mice received an L-serine or L-alanine enriched diet (10% L-Serine or L-Alanine w/w) for a period 15 days. […] Plasma deoxy-sphingolipid levels remained low during the whole treatment period (A, pmol/ml; B, days).
Transgenic mice expressing a mutant (C133W) form of SPTLC1 develop a peripheral neuropathy within 10 to 15 months of life. The development of a neuropathy in these HSAN1 mice correlates with highly elevated deoxy-sphinganine and deoxy-sphingosine plasma levels.

A further test relates to SPT (wt enzyme). The test can be described thus: DoxSA formation in HEK293 wt cells at various L-serine:L-alanine ratios in the presence of FB1. Conditions: increasing L-serine medium concentrations, varying L-alanine concentrations. The format is cell-based. As to the method: (§2) HEK293 wt cells (FIG. 7-I) and Hek cells expressing various mutant forms of SPT (wt, C133W, C133Y, V144D) (FIG. 7-II) were cultured at various L-serine:L-alanine ratios in the presence of FB1 (see above Example 1). […] In the second approach L-alanine concentrations were held constant at 2 mM.
as §1, with “The upper phase is discarded and the organic phase washed twice with alkaline water. Lipids are dried under a stream of N2 and resolubilized in 50 μl ethanol (95%) and 100 μl methanol:H2O (85:15).” left out, “OPA derivates are separated on a C18 column. Mobile phase is ammonium acetate (5 mM):methanol=17:83 (25 min, isocratic), followed by a wash with 100% methanol (5 min) at a flow rate of 300 μl/min.” left out

In test [2] the test system is mutant forms of SPT (C133W, C133Y, V144D). The test can be described thus: DoxSA formation in Hek cells expressing mutant forms of SPT at increasing L-serine in the presence of FB1. The test is classed as cell-based. The conditions noted are these: HSAN1 mutants C133W, increasing L-serine medium concentrations, L-alanine constant at 2 mM. Here is the method: as §2
as §1, with “The upper phase is discarded and the organic phase washed twice with alkaline water. Lipids are dried under a stream of N2 and resolubilized in 50 μl ethanol (95%) and 100 μl methanol:H2O (85:15).” left out, “OPA derivates are separated on a C18 column. Mobile phase is ammonium acetate (5 mM):methanol=17:83 (25 min, isocratic), followed by a wash with 100% methanol (5 min) at a flow rate of 300 μl/min.” left out

In the next test the test system is HSAN1 patients. The test can be described thus: Oral L-serine supplementation in HSAN1 patients (C133Y). The format is in vivo, humans. As to the method: (A, weeks, B, μM; C, treatment phase; D, washout phase).
14 HSAN1 patients having the C133Y mutation received an oral serine supplementation for a period of 10 weeks followed by a wash out period of two weeks (FIG. 9). Patients were separated in a low dose and a high dose treatment group (n per group=7) receiving either 5 g or 10 g L-serine/day. The plasma sphingolipid composition was analyzed by an acid/base hydrolysis to release the free sphingoid bases. […] In both groups an up to 80% reduction in plasma deoxy-sphingolipid levels was observed. […] During the wash out phase the plasma deoxy-sphingolipid levels raised again.

The mark [3] stands for this setting: fumonisin B1, 10 mM supplementation.

As for `N[C@H](CO)C(=O)O` [D-serine], in test [1], the SPT activity result is listed as “generally inhibitory”.
On to `COc1cc([C@@H]2c3cc4c(cc3[C@@H](O[C@@H]3O[C@@H]5CO[C@@H](C)O[C@H]5[C@H](O)[C@H]3O)[C@H]3COC(=O)[C@H]23)OCO4)cc(OC)c1O` [Etoposide, etoposide], for which, in the test with cellular SPT activity (fumonisin B1), the “concentration at which DoxSA showed a maximum” value came out at 0.5 mM. Moreover, in the test on cellular SPT activity, the DoxSA generation result is “increased” and the “SA (sphinganine) generation / accumulation” value is “increased in a dose dependant manner”.
For the compound `C[C@H](N)C(=O)O` [L-alanine, reference compound], in test [1] (setting [3]), the formation of deoxy-sphinganine entry is given as “increased formation”. Further, in the test with HSAN1 mice (enriched diet), the plasma deoxy-sphingolipid levels entry is given as “increased” and the “time to first neuropathic symptoms” value was 2-3 months.
Regarding `N[C@@H](CO)C(=O)O` [L-serine], the DoxSA formation entry in the test with SPT (wt enzyme) was “significant decrease”; in test [2], “significant decrease”; in test [2] (listed as L-erine), “efficiently inhibited”. The formation of sphinganine entry in test [1] (setting [3]) is listed as “stimulates the formation”. The “generation of deoxy-sphingoid bases” value in test [1] (setting [3]) is listed as “suppresses”. Moreover, the “plasma deoxy-sphinganine and deoxy-sphingosine levels vs untreated mice” value in the test on HSAN1 mice (enriched diet 10% w/w for 15 days, 3-4 days after start of treatment) is reported as “remarkable reduction”. Also, the “reduction in plasma deoxy-sphinganine and deoxy-sphingosine levels” value with HSAN1 mice (enriched diet 10% w/w, after 4-5 days of treatment) was “up to 80%”. Besides, the development of neuropathy result in the test on HSAN1 mice (enriched diet, until end of study (18 months), untreated controls neuropathic after 8 to 9 months) is listed as “did not develop a neuropathy”. The “difference between low and high dose group” value in the test on HSAN1 patients (5 g vs 10 g/day, plasma deoxy-sphingolipid levels) was “No significant differences”. Besides, the “time to maximal suppression of plasma deoxy-sphinganine and deoxy-sphingosine levels” value with HSAN1 patients (HSAN1 patients C133Y, oral 5 g or 10 g/day) turned out to be 6 weeks. In the test with HSAN1 patients (HSAN1 patients C133Y, oral 5 g or 10 g/day, 10 weeks, both groups), the “reduction in plasma deoxy-sphingolipid levels” value is “up to 80%”. Besides, the “deoxy-sphingolipid plasma levels during treatment period” value with HSAN1 patients (HSAN1 patients C133Y, oral treatment over ten weeks, until end of treatment) was “remained suppressed”. Also, the “plasma deoxy-sphingolipid levels during wash out phase” value in the test on HSAN1 patients (two weeks wash out after 10 weeks of treatment) is given as “raised again”.
Take `CC(=O)O[C@H]1C(=O)[C@@]2(C)[C@H]([C@H](OC(=O)c3ccccc3)[C@]3(O)C[C@H](OC(=O)[C@H](O)[C@@H](NC(=O)c4ccccc4)c4ccccc4)C(C)=C1C3(C)C)[C@]1(OC(C)=O)CO[C@@H]1C[C@@H]2O` [Paclitaxel, paclitaxel]: in the test with cellular SPT activity, the DoxSA generation result is reported as “stimulated DoxSA generation in a dose dependant manner” and the “SA (sphinganine) generation / accumulation” value is listed as “not altered”.
In the case of `N[C@@H]1CON=C1O` [cycloserine, reference compound], the SPT activity entry in test [1] is given as “generally inhibitory”.
As for `NCC(=O)O` [glycine, reference compound], in test [1] (setting [3]), the formation of deoxymethyl-sphinganine result is “stimulate the formation”.
Consider `O=C1CCC(N2C(=O)c3ccccc3C2=O)C(=O)N1` (centres unmarked) [thalidomide], for which, in the test with cellular SPT activity, the DoxSA generation entry is recorded as “no effect” and the “SA (sphinganine) generation / accumulation” value is recorded as “no effect”.
